Data taken from US20240276935A1, “METHODS FOR ENHANCING DISEASE RESISTANCE AND INCREASING BIOMASS YIELD AND SECONDARY METABOLITE QUANTITIES IN CANNABIS SATIVA UTILIZING PLANT DEFENSE-RESPONSE ELICITORS” (priority 2023, published 2024).

Columns and labels:
C. sativa = system: C. sativa; set-up: species or system Cannabis sativa; settings: in vivo
Fusarium sp. = assay: Protective effect on rooting clones of C. sativa against Fusarium sp. (Table 1); assay type: in vivo; settings: for Total Alive: cultivar III clones alive; for Total Alive / Total Dead: total of 30 replicate clones per elicitor treatment; for Total Dead: cultivar III clones dead; for Mean Survival: rooting clones of cultivar III, sprayed daily ~2 ml solution/clone, inoculated with Fusarium culture (~10^3 Cfu/ml), survival one week later, three repeats of 10 clones
Description: Cultivar III was shown from the data in FIG. 1B to be most susceptible to mold pathogens. Thus, 10 clones of cultivar III were selected to be treated with formulations containing bacterial/fungal PAMP elicitor compounds (as listed in Table 1) formulated in water. Treatments were performed by spraying the clones daily with ˜2 ml solution/clone, starting one week after cutting. Plants were inoculated two weeks after cutting (one week after treatment application) by applying 10 ml Fusarium culture (˜10^3 Cfu/ml) to the water tray. After one hour, clones were removed and placed in clean water trays. Survival was assessed one week later upon reaching the vegetative growth phase. The experiment was repeated three times for a total of 30 replicate clones per elicitor treatment.

medical cannabis variety = settings: 0.1 mM, foliar application; cited from earlier work
cannabis sativa = settings: cited from earlier work

| SMILES | Yield (g/plant), Cultivar I (C. sativa) [g/plant] | Yield (g/plant), Cultivar II (C. sativa) | Yield (g/plant), Cultivar III (C. sativa) [g/plant] | Total Alive (Fusarium sp.) | Total Dead (Fusarium sp.) | Mean Survival (Fusarium sp.) [%] | increase of CBDA content in inflorescences (medical cannabis variety) [%] | A9-THC in extract (cannabis sativa; 1 M of SA (highest)) [%] | CBD in extract (cannabis sativa; 1 M of SA (highest)) [%] | TPC, TFC, TCC, Chl a, Chl b, and antioxidant capacity (cannabis sativa; 1 M treatment, lowest in control plants) |
| --- | --- | --- | --- | --- | --- | --- | --- | --- | --- | --- |
| COc1cc(/C=C/CO)ccc1O [Coniferyl Alcohol] | 13.6 ± 2.9 | 12.8 ± 1.3 g/plant | 12.4 ± 1.8 | – | – | – | – | – | – | – |
| CC(=O)N[C@H]1C(O)O[C@H](CO)[C@@H](O)[C@@H]1O (stereo partly drawn) [N-Acetyl-D-Glucosamine (4), N-Acetyl-D-Glucosamine] | 11.6 ± 1.7 | 10.7 ± 1.9 g/plant | 9.2 ± 0.7 | 21 | 9 | 70.0 | – | – | – | – |
| O=C(O)[C@H]1OC(O)[C@H](O)[C@@H](O)[C@H]1O (stereo partly shown) [D Galactoronic Acid] | 13.5 ± 1.8 | 11.5 ± 2.1 g/plant | 10.2 ± 1.8 | – | – | – | – | – | – | – |
| CC/C=C\CC1C(=O)CCC1CC(=O)OC (stereo not shown) [MeJA, methyl jasmonate] | – | – | – | – | – | – | 15.6 | – | – | – |
| OC/C=C/c1ccc(O)cc1 [Paracoumaryl Alcohol] | 14.7 ± 2.5 | 9.2 ± 1 g/plant | 11.9 ± 2.9 | – | – | – | – | – | – | – |
| O=C(O)c1ccccc1O [SA, salicylic acid] | – | – | – | – | – | – | – | 22.84 | 37.81 | highest |
| COc1cc(/C=C/CO)cc(OC)c1O [Sinapyl Alcohol (Syringil monomer), Sinapyl Alcohol] | 16.4 ± 1.2 | 12.9 ± 2.1 g/plant | 13.5 ± 2.6 | – | – | – | – | – | – | – |
| CC(=O)N[C@H]1C(O)O[C@H](CO)[C@@H](O)[C@@H]1O[C@H](C)C(=O)O (stereo partly shown) [N-Acetylmuramic Acid] | 13.4 ± 2.1 | 11.5 ± 2^ g/plant | 11.5 ± 1.6 | 21 | 9 | 70.0 | – | – | – | – |
